Data as given in paper PMC9099121, “Population pharmacokinetic and exposure‐response analyses from ALTA‐1L: Model‐based analyses supporting the brigatinib dose in ALK‐positive NSCLC” (Clinical and Translational Science, 2022).

System: ALK+ NSCLC
Assay: Exposure-ORR/iORR logistic regression, ALTA-1L
Type: in vivo, human
Source text: The exposure‐efficacy analyses related reported efficacy outcomes (blinded IRC [BIRC]‐assessed PFS, ORR, and iORR) to individual brigatinib exposures predicted using individual estimated PK parameters from the population PK model. Model‐based estimates of CL/F and actual dosing history were used to derive exposure metrics of interest. Several exposure metrics were considered, including both static and dynamic area under the concentration‐time curve (AUC) estimates (Methods S1).
For ORR and iORR, each patient was classified as a responder (i.e., achieving confirmed complete or partial systemic ORR or iORR response) or a nonresponder. Relationships between ORR and iORR and brigatinib exposure were analyzed using two static exposure metrics: time‐averaged AUC between the last two disease assessment scans preceding best confirmed response and time‐averaged AUC until best confirmed response (ORR or iORR). Exposure–clinical response relationships were characterized by logistic regression models. Predicted logistic regression curve and observed response rate in each brigatinib exposure quartile or tertile (along with associated 95% CIs) were plotted.
Time averaged AUC until best confirmed response (ORR or iORR)= Cumulative dose to best confirmed systemic ORR or intracranial iORR responseOral brigatinib clearance/ (days to best confirmed systemic or intracranial response)
Static metrics of time-averaged exposure between the last two disease assessment scans preceding PFS, ORR, or iORR, or censoring (refer to 2)

Question: Which “Estimated probability of iORR” value (5th exposure percentile following 180 mg dosing) does the source give for `COc1cc(N2CCC(N3CCN(C)CC3)CC2)ccc1Nc1ncc(Cl)c(Nc2ccccc2P(C)(C)=O)n1` [brigatinib] here?
Answer: The value was 0.58.

Question: What about the “Estimated probability of iORR” value (50th (median) exposure percentile following 180 mg dosing) of the same compound?
Answer: Its value is 0.83.

Question: What about the “Estimated probability of iORR” value (50th (median) exposure percentile following 180 mg dosing, listed as Brigatinib) of the same compound?
Answer: The value was 0.83 (0.58–0.99).

Question: And the “Estimated probability of iORR” value (95th exposure percentile following 180 mg dosing)?
Answer: The value was 0.99.

Question: And the “Odds ratio for probability of achieving iORR versus exposure” value (time-averaged AUC between the last two disease assessments preceding best confirmed intracranial response, 95% CI: 1.01–1.28, p = 0.049, n = 42)?
Answer: The value was 1.13.

Question: And the “Odds ratio for probability of achieving ORR versus exposure” value (time-averaged AUC between the last two disease assessments preceding best confirmed objective response, 95% CI: 0.93–1.01, p = 0.108)?
Answer: The value was 0.97.

Question: And the “Odds ratio for probability of achieving ORR versus exposure” value (time-averaged AUC until the first best confirmed response, p = 0.13)?
Answer: Its value is 0.97 [0.94–1.01].

Question: What about the “Odds ratio for probability of iORR versus exposure” value (time-averaged AUC until the first best confirmed response, p = 0.15) of the same compound?
Answer: The value was 1.09 [0.98–1.23].
